How the values were obtained:
Assay type in all cases: cell-based
GP2D = experiment: 3D-CTG proliferation inhibition of GP2D cells; conditions: cell proliferation, read after the 8th day of incubation, read-out: GP2D, IC50 (nM) KRAS G12D
Method: (§1) • (1) GP2D and HPAC cells were revived in DMEM medium containing 10% fetal bovine serum and used for experiments after the cells were recovered. • (2) On the first day, the cells were rinsed once with PBS, preheated trypsin was added, and the cells were placed in a 37 °C 5% CO2 incubator for 3-5 minutes. The digestion was terminated by adding an appropriate amount of complete culture medium (containing 10% fetal bovine serum), and the cells were transferred to a centrifuge tube and centrifuged at 1000 rpm for 5 minutes. • (3) The cells were resuspended in complete culture medium, counted, and adjusted to the appropriate cell concentration with complete culture medium. • (4) Using the ECHO 655 ultrasonic liquid handling system, 0.2 µl of the prepared 200× serial dilution compound (final DMSO concentration of 0.5%) was added to a 384-well plate. 40 µl of the cell suspension counted in step (3) was then added to each well and the plate was incubated in a 5% CO2 incubator at 37 °C. • (6) After the 8th day of incubation, 3D CTG detection reagent was added to each well. • (7) Signal values were read using Envision. • (8) Data analysis: • a) DMSO and culture medium were used to test the stability of the experimental method: • H = DMSO well • L = Culture medium well H, CV% (DMSOwell) = 100 × (SDvalueofDMSOwell/averagevalueofDMSOwell) [formula] L, CV% (correspondingculturemediumwell) = 100 × (SDvalueofculturemediumwell/average [formula] value of corresponding culture medium well) [formula] [formula] • b) IC50 values were fitted using the nonlinear regression equation in XLfit 5.5.0 software. Y = Bottom + (Top−Bottom)/(1+10^(∧)((LogIC50−X)*HillSlope)) [formula] • X: Log value of compound concentration • Y: Inhibition rate (% inh)

[1] = system: pERK in KRAS G12D mutant cell line AGS; experiment: Inhibitory effect on intracellular pERK by In-Cell Western Assay (384-well); conditions: Homo sapiens; pERK inhibition, AGS cells, 3 h incubation; read-out: AGS, IC50 (nM) KRAS p.G12D
Method: (7) The cells were fixed. (8) The cells were washed twice with PBS. (9) The blocking solution was added and the cells were incubated at room temperature for 1 h. […] (11) The cells were washed twice with PBST (PBS + 0.05% Tween 20) for 2 minutes each time.

HPAC = experiment: 3D-CTG proliferation inhibition of HPAC cells; conditions: Homo sapiens, read-out: IC50 (nM) KRAS G12D, Table D-2, titled HPAC, cell proliferation, read after the 8th day of incubation, read-out: GP2D, IC50 (nM) KRAS G12D
Method: as §1, with “L, CV% (correspondingculturemediumwell) = 100 × (SDvalueofculturemediumwell/average [formula] value of corresponding culture medium well) [formula] [formula] • b) IC50 values were fitted using the nonlinear regression equation in XLfit 5.5.0 software. Y = Bottom + (Top−Bottom)/(1+10^(∧)((LogIC50−X)*HillSlope)) [formula] • X: Log value of compound concentration • Y: Inhibition rate (% inh)” left out

[2] = system: pERK in KRAS G12D mutant cell line ASPC-1; experiment: Inhibitory effect on intracellular pERK by In-Cell Western Assay (96-well); conditions: Homo sapiens, ASPC1; pERK inhibition, ASPC-1 cells, 2 h incubation; read-out: ASPC-1, IC50 (nM) KRAS p.G12D
Method: (2) On the first day, the following cells were revived with the corresponding culture medium and incubated in a 5% CO2 incubator at 37 °C until confluence:
(2) On the third day, the culture medium was removed, 2 mL of trypsin was added for digestion, and the cells were placed in an incubator until the cells detached. (3) 5 mL of fresh culture medium was added to resuspend the cells to terminate the digestion, and the cells were gently pipetted and centrifuged at 1000 rpm for 5 minutes at room temperature. (4) The supernatant was removed, and 5 mL of new culture medium was added to resuspend the cells and count them. (5) The cells were adjusted to the appropriate cell concentration with complete culture medium and plated in a 96-well plate. 90 µL of cells were added to each well, the cells were incubated in a 5% CO2 incubator at 37 °C overnight. (6) 10 µL of the prepared serial dilution compound (DMSO final concentration was 0.5%) was added and the cells were incubated in a 5% CO2 incubator at 37 °C for 2 h. (7) The supernatant was discarded, and 200 µL of 4% paraformaldehyde fixative was added to fix the cells. (8) The cells were washed three times with TBST. (9) The blocking solution was added and the cells were incubated at room temperature for 1 h. […]

Panc04.03 = experiment: 3D-CTG proliferation inhibition of KRAS G12D mutant cells; conditions: Homo sapiens, Panc 04.03, cell proliferation, read after the 7th day of incubation
Method: (§2) (1) On the first day, the following cells were revived with the corresponding culture medium and incubated in a 5% CO2 incubator at 37 °C until confluence:
(§3) (2) On the second day, the cells were rinsed once with PBS, preheated trypsin was added, and the cells were placed in a 37 °C 5% CO2 incubator for digestion for 3~5 minutes. The digestion was terminated by adding an appropriate amount of complete culture medium (containing 10% fetal bovine serum), and the cells were transferred to a centrifuge tube and centrifuged at 1000 rpm for 5 minutes. (3) The cells were resuspended in complete culture medium, counted, and adjusted to the appropriate cell concentration with complete culture medium. (4) 90 µl/well of cell suspension was added to a 96-well plate and incubated in a 5% CO2 incubator at 37 °C overnight. (5) Each well was added with 10 µl of the prepared 10× serial dilution compound (final DMSO concentration was 0.5%) and incubated in a 37°C 5% CO2 incubator. (6) After the 7th day of incubation, 50 µl of 3D CTG detection reagent was added to each well and the cells were shaken at 350 rpm for 20 minutes. (7) Signal values were read using an enzyme meter. (8) Data analysis: IC50 values were fitted using the nonlinear regression equation in Graphpad software. […]

ASPC-1 = experiment: as above; conditions: Homo sapiens, ASPC1, cell proliferation, read after the 7th day of incubation
Method: as §2, §3

SMILES	IC50 (GP2D)	further results
C#Cc1c(F)ccc2cc(O)cc(-c3nc(C#CC)c4c(N5CC6CCC(C5)N6)nc(OCC56CC(=C)CN5CC(=C)C6)nc4c3F)c12 [Example 2]	0.17 nM	IC50 [1]: 0.4 nM; IC50 (HPAC): 0.77 nM; IC50 [2]: 0.86 nM; IC50 (Panc04.03): 0.85 nM; IC50 (ASPC-1): 0.42 nM
C#Cc1c(F)ccc2cc(O)cc(-c3nc(C#CC)c4c(N5CC6CCC(C5)N6)nc(OCC56CCCN5CC(=C)C6)nc4c3F)c12 (centres unmarked) [Example 5]	0.07 nM	
C#Cc1c(F)ccc2cc(O)cc(-c3nc(C#C)c4c(N5CC6CCC(C5)N6)nc(OCC56CC(=C)CN5CC(=C)C6)nc4c3F)c12 [Example 6]	1.6 nM	
C=C1CN2CC(=C)CC2(COc2nc(N3CC4CCC(C3)N4)c3c(C#CC)nc(-c4cc(O)cc5ccc(F)c(CC)c45)c(F)c3n2)C1 [Example 9]	0.19 nM	
C=C1CN2CC(=C)CC2(COc2nc(N3CC4CCC(C3)N4)c3c(C#CC)nc(-c4cc(N)cc(Cl)c4C(F)(F)F)c(F)c3n2)C1 [Example 10]	12.4 nM	
C#Cc1c(F)ccc2cc(O)cc(-c3nc(C#CC)c4c(N5CC6CCC(C5)N6)nc(OCC56CCCN5CC(=CF)C6)nc4c3F)c12 (centres unmarked) [Example 11]	0.03 nM	
